pIC50: −log10 of the molar value.

Sequence of Factor IXa (P00740 227-461 limits assumed): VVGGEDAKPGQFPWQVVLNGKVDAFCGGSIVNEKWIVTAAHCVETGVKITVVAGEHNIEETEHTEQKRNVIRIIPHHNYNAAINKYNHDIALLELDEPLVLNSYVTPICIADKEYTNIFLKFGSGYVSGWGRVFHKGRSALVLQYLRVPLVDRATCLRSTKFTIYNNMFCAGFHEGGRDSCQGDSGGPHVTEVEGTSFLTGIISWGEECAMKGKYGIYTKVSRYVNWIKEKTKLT
Sequence of Factor IXa (P00740 47-191 partner limits assumed): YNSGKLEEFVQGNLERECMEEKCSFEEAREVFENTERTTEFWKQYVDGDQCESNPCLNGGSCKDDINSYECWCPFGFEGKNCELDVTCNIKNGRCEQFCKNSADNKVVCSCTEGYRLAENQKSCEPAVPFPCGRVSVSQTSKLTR

The assay concerns the target Factor IXa (Homo sapiens, UniProt P00740). The assay can be described thus: Determination of inhibitory activity against Factor IXa (cleavage of fluorescent peptide substrate). The format is biochemical. The settings on record: cleavage of fluorescent peptide CH3SO2-D-CHG-Gly-Arg-AFC, release of AFC; read-out: FIXa IC50. The method, boiled down:
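Factor IXa activity followed via cleavage of CH3SO2-D-CHG-Gly-Arg-AFC, releasing AFC. Fluorescence read at excitation 405 nm, emission 510 nm.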
What is called pIC50 is the IC50 on a negative log10 scale, so that one unit is a factor of ten. Take `COc1cc(-n2ccc(N3CCO[C@H]([C@@](C)(O)C(=O)Nc4cc(F)c5c(N)noc5c4)C3=O)n2)cnn1` [Example 139, (R)—N-(3-amino-4-fluorobenzo[d]isoxazol-6-yl)-2-hydroxy-2-((R)-4-(1-(6-methoxypyridazin-4-yl)-1H-pyrazol-3-yl)-3-oxomorpholin-2-yl)propanamide]: the pIC50 is 7.85.
With `C[C@](O)(C(=O)Nc1cc(F)c2c(N)noc2c1)[C@H]1OCCN(c2nn(-c3ccnnc3)cc2F)C1=O` [Example 140, (R)—N-(3-amino-4-fluorobenzo[d]isoxazol-6-yl)-2-((R)-4-(4-fluoro-1-(pyridazin-4-yl)-1H-pyrazol-3-yl)-3-oxomorpholin-2-yl)-2-hydroxypropanamide] the figure was 8.25; with `COc1nccc(-n2ccc(N3CCO[C@H]([C@@](C)(O)C(=O)Nc4cc(F)c5c(N)noc5c4)C3=O)n2)n1` [Example 141, (R)—N-(3-amino-4-fluorobenzo[d]isoxazol-6-yl)-2-hydroxy-2-((R)-4-(1-(2-methoxypyrimidin-4-yl)-1H-pyrazol-3-yl)-3-oxomorpholin-2-yl)propanamide], 6.97.
With `C[C@]1([C@@H](O)C(=O)Nc2cc(F)c3c(N)noc3c2)OCCN(c2ccn(-c3ccnnc3)n2)C1=O` [Example 142, (R)—N-(3-amino-4-fluorobenzo[d]isoxazol-6-yl)-2-hydroxy-2-((R)-2-methyl-3-oxo-4-(1-(pyridazin-4-yl)-1H-pyrazol-3-yl)morpholin-2-yl)acetamide] the figure was 8.20.
The value for `COc1nccc(-n2ccc(N3CCO[C@](C)([C@@H](O)C(=O)Nc4cc(F)c5c(N)noc5c4)C3=O)n2)n1` [Example 143, (R)—N-(3-amino-4-fluorobenzo[d]isoxazol-6-yl)-2-hydroxy-2-((R)-4-(1-(2-methoxypyrimidin-4-yl)-1H-pyrazol-3-yl)-2-methyl-3-oxomorpholin-2-yl)acetamide] was 7.66; that for `C[C@](O)(C(=O)Nc1cnc2c(N)noc2c1)[C@H]1OCCN(c2ccn(-c3ccncc3)n2)C1=O` [Example 144, (R)—N-(3-aminoisoxazolo[4,5-b]pyridin-6-yl)-2-hydroxy-2-((R)-3-oxo-4-(1-(pyridin-4-yl)-1H-pyrazol-3-yl)morpholin-2-yl)propanamide] was 6.34; that for `COc1cc(-n2ccc(N3CCO[C@H]([C@@](C)(O)C(=O)Nc4ccc5[nH]c(C)c(Cl)c5c4)C3=O)n2)ccn1` [Example 145, (R)—N-(3-chloro-2-methyl-1H-indol-5-yl)-2-hydroxy-2-((R)-4-(1-(2-methoxypyridin-4-yl)-1H-pyrazol-3-yl)-3-oxomorpholin-2-yl)propanamide] was 5.96.
Take `Cc1[nH]c2ccc(NC(=O)[C@](C)(O)[C@H]3OCCN(c4ccn(-c5ccnnc5)n4)C3=O)cc2c1Cl` [Example 146, (R)—N-(3-chloro-2-methyl-1H-indol-5-yl)-2-hydroxy-2-((R)-3-oxo-4-(1-(pyridazin-4-yl)-1H-pyrazol-3-yl)morpholin-2-yl)propanamide]: the negative logarithm of the IC50 (pIC50) is 7.55.
With `C[C@](O)(C(=O)Nc1ccc2c(N)noc2c1)[C@@]1(C)OCCN(c2ccn(-c3ccnnc3)n2)C1=O` [Example 148, (R)—N-(3-Aminobenzo[d]isoxazol-6-yl)-2-hydroxy-2-((R)-2-methyl-3-oxo-4-(1-(pyridazin-4-yl)-1H-pyrazol-3-yl)morpholin-2-yl)propanamide] the figure was 7.20.
The value for `COc1cc(-n2ccc(N3CCO[C@](C)([C@@](C)(O)C(=O)Nc4ccc5c(N)noc5c4)C3=O)n2)cnn1` [Example 149, (R)—N-(3-aminobenzo[d]isoxazol-6-yl)-2-hydroxy-2-((R)-4-(1-(6-methoxypyridazin-4-yl)-1H-pyrazol-3-yl)-2-methyl-3-oxomorpholin-2-yl)propanamide] was 7.03.
With `C[C@](O)(C(=O)Nc1ccc(CN)cc1)[C@H]1OCCN(c2ccn(-c3ccncc3)n2)C1=O` [Example 150, (R)—N-(4-(aminomethyl)phenyl)-2-hydroxy-2-((R)-3-oxo-4-(1-(pyridin-4-yl)-1H-pyrazol-3-yl)morpholin-2-yl)propanamide] the figure was 7.18; with `C[C@](O)(C(=O)Nc1ccc(CN)c(F)c1)[C@H]1OCCN(c2ccn(-c3ccncc3)n2)C1=O` [Example 151, (R)—N-(4-(aminomethyl)-3-fluorophenyl)-2-hydroxy-2-((R)-3-oxo-4-(1-(pyridin-4-yl)-1H-pyrazol-3-yl)morpholin-2-yl)propanamide], 7.16.
As for `C[C@]1([C@@H](O)C(=O)Nc2ccc(CN)cc2)OCCN(c2ccn(-c3ccncc3)n2)C1=O` [Example 152, (R)—N-(4-(aminomethyl)phenyl)-2-hydroxy-2-((R)-2-methyl-3-oxo-4-(1-(pyridin-4-yl)-1H-pyrazol-3-yl)morpholin-2-yl)acetamide], the pIC50 was 8.01.
With `C[C@]1([C@@H](O)C(=O)Nc2ccc(CN)c(F)c2)OCCN(c2ccn(-c3ccncc3)n2)C1=O` [Example 153, (R)—N-(4-(aminomethyl)-3-fluorophenyl)-2-hydroxy-2-((R)-2-methyl-3-oxo-4-(1-(pyridin-4-yl)-1H-pyrazol-3-yl)morpholin-2-yl)acetamide] the figure was 7.90; with `C[C@@H]1CN(c2ccn(-c3cnnc(C#N)c3)n2)C(=O)[C@@H]([C@@H](O)C(=O)Nc2ccc3c(N)noc3c2)O1` [Example 154, (R)—N-(3-Aminobenzo[d]isoxazol-6-yl)-2-((2R,6R)-4-(1-(6-cyanopyridazin-4-yl)-1H-pyrazol-3-yl)-6-methyl-3-oxomorpholin-2-yl)-2-hydroxyacetamide], 8.70; with `C[C@H]1CN(c2ccn(-c3cnnc(C#N)c3)n2)C(=O)[C@@H]([C@@H](O)C(=O)Nc2ccc3c(N)noc3c2)O1` [Example 155, (R)—N-(3-Aminobenzo[d]isoxazol-6-yl)-2-((2R,6S)-4-(1-(6-cyanopyridazin-4-yl)-1H-pyrazol-3-yl)-6-methyl-3-oxomorpholin-2-yl)-2-hydroxyacetamide], 8.71.
As for `CC1(C)CN(c2ccn(-c3cnnc(C#N)c3)n2)C(=O)[C@@H]([C@@H](O)C(=O)Nc2ccc3c(N)noc3c2)O1` [Example 156, (R)—N-(3-Aminobenzo[d]isoxazol-6-yl)-2-((R)-4-(1-(6-cyanopyridazin-4-yl)-1H-pyrazol-3-yl)-6,6-dimethyl-3-oxomorpholin-2-yl)-2-hydroxyacetamide], the pIC50 was 8.77.
On to `C[C@@H]1CN(c2ccn(-c3ccnnc3)n2)C(=O)[C@@H]([C@@H](O)C(=O)Nc2ccc3c(N)noc3c2)O1` [Example 157, (R)—N-(3-aminobenzo[d]isoxazol-6-yl)-2-hydroxy-2-((2R,6R)-6-methyl-3-oxo-4-(1-(pyridazin-4-yl)-1H-pyrazol-3-yl)morpholin-2-yl)acetamide], for which the pIC50 was 8.87.
With `C[C@@H]1CN(c2nn(-c3ccnnc3)cc2F)C(=O)[C@@H]([C@@H](O)C(=O)Nc2ccc3c(N)noc3c2)O1` [Example 158, (R)—N-(3-aminobenzo[d]isoxazol-6-yl)-2-((2R,6R)-4-(4-fluoro-1-(pyridazin-4-yl)-1H-pyrazol-3-yl)-6-methyl-3-oxomorpholin-2-yl)-2-hydroxyacetamide] the figure was 8.36.

Values taken from patent US9708308B2, “Factor IXa inhibitors” (Merck Sharp & Dohme Corp., priority 2012, dated 2017).
